Assays:
[1] = test system: purified guinea pig anti-a,DNP-Lys7-10 antibody; details: as measured by binding of DNP-OH or DNP-EACA; fluorescence quenching
[2] = test system: purified anti-8,e,DNP-Lys8 antibody; assay type: binding, guinea pig; details: cross-reaction of anti-8,ε,DNP-Lys8 antibody with α,DNP-oligolysines

`O=C(O)CCCCCNc1ccc([N+](=O)[O-])cc1[N+](=O)[O-]` [DNP-EACA] was tested, and the “contribution of the haptenic group to the total binding energy of a,DNP-Lys9” value [1] was “about 70%”.

`O=[N+]([O-])c1ccc(O)c([N+](=O)[O-])c1` [DNP-OH, 2,4,dinitrophenol] was tested, and the “contribution of the haptenic group to the total binding energy of a,DNP-Lys9” value [1] was “about 70%” and the “contribution to the binding energy of α,DNP-oligolysines” value [2] was 93%.

From PMC2138933 (The Journal of Experimental Medicine, 1971)
